Compared with `CC(C)Oc1cccc2c1cnn2-c1ccnc(N[C@H]2CC[C@H](N(C)S(C)(=O)=O)CC2)n1` [Compound 189, N-{4-[4-(4-isopropoxy-indazol-1-yl)-pyrimidin-2-ylamino]-cyclohexyl}-N-methyl-methanesulfonamide], `CC(C)COc1cccc2c1cnn2-c1ccnc(N[C@H]2CC[C@H](N(C)S(C)(=O)=O)CC2)n1` [Compound 191, N-{4-[4-(4-isobutoxy-indazol-1-yl)-pyrimidin-2-ylamino]-cyclohexyl}-N-methyl-methanesulfonamide] is higher in melting point: 222 to 223 °C for the first, 227 to 228 °C for the second.

First: CCCCOc1cccc2c1cnn2-c1ccnc(N[C@H]2CC[C@H](N(C)S(C)(=O)=O)CC2)n1 [Compound 190, N-{4-[4-(4-butoxy-indazol-1-yl)-pyrimidin-2-ylamino]-cyclohexyl}-N-methyl-methanesulfonamide]
Second: CC(=O)NCCCOc1cccc2c1cnn2-c1ccnc(N[C@H]2CC[C@H](N(C)S(C)(=O)=O)CC2)n1 [Compound 213, N-[3-(1-{2-[4-(methane-sulfonyl-methylamino)-cyclohexylamino]-pyrimidin-4-yl}-1H-indazol-4-yloxy)-propyl]-acetamide]
The melting point of the first is lower: 191 to 192 °C for the first, 226 to 227 °C for the second.

First: CS(=O)(=O)N[C@H]1CC[C@H](Nc2nccc(-n3ccc4c(C5(O)CCOCC5)cccc43)n2)CC1 [Compound 194, N-(4-{4-[4-(4-hydroxy-tetrahydropyran-4-yl)-indol-1-yl]-pyrimidin-2-ylamino}-cyclohexyl)-methanesulfonamide]
Second: O=C([C@H]1CC[C@H](Nc2nccc(-n3ccc4c(C5(O)CCOCC5)cccc43)n2)CC1)N1CCC(O)CC1 [Compound 232, (4-hydroxy-piperidin-1-yl)-(4-{4-[4-(4-hydroxy-tetrahydro-pyran-4-yl)-indol-1-yl]-pyrimidin-2-ylamino}-cyclohexyl)-methanone]
The melting point of the first is higher: 248.3 to 249 °C for the first, 168 to 169 °C for the second.

First: CS(=O)(=O)N[C@H]1CC[C@H](Nc2nccc(-n3ccc4c(OCC5CCN(C(=O)OCc6ccccc6)CC5)cccc43)n2)CC1 [Compound 195, 4-{1-[2-(4-methane-sulfonylamino-cyclo-hexylamino)-pyrimidin-4-yl]-1H-indol-4-yloxymethyl}-piperidine-1-carboxylic acid benzyl ester]
Second: COCCOc1cccc2c1ccn2-c1ccnc(N[C@H]2CC[C@H](NS(C)(=O)=O)CC2)n1 [Compound 221, N-(4-{4-[4-(2-methoxy-ethoxy)-indol-1-yl]-pyrimidin-2-ylamino}-cyclohexyl)-methanesulfonamide]
The melting point of the first is lower: 179 to 180 °C for the first, 203 to 205 °C for the second.

First: CN([C@H]1CC[C@H](Nc2nccc(-n3ncc4c(OCCCNS(C)(=O)=O)cccc43)n2)CC1)S(C)(=O)=O [Compound 197, N-[3-(1-{2-[4-(methane-sulfonyl-methylamino)-cyclohexylamino]-pyrimidin-4-yl}-1H-indazol-4-yloxy)-propyl]-methane-sulfonamide]
Second: CC(C)(O)[C@H]1CC[C@H](Nc2nccc(-n3ncc4c(OCCCNS(C)(=O)=O)cccc43)n2)CC1 [Compound 210, N-[3-(1-{2-[4-(2-hydroxyprop-2-yl)-cyclohexylamino]-pyrimidin-4-yl}-1H-indazol-4-yloxy)-propyl]-methane-sulfonamide]
The melting point of the first is higher: 259 to 259.5 °C for the first, 171 to 172 °C for the second.

First: CS(=O)(=O)N[C@H]1CC[C@H](Nc2nccc(-n3ccc4c(OCCCC#N)cccc43)n2)CC1 [Compound 202, N-(4-{4-[4-(3-cyano-propoxy)-indol-1-yl]-pyrimidin-2-ylamino}-cyclohexyl)-methane-sulfonamide]
Second: COCCCOc1cccc2c1ccn2-c1ccnc(N[C@H]2CC[C@H](NS(C)(=O)=O)CC2)n1 [Compound 236, N-(4-{4-[4-(3-methoxy-propoxy)-indol-1-yl]-pyrimidin-2-ylamino}-cyclohexyl)-methanesulfonamide]
The melting point of the first is higher: 247 to 248 °C for the first, 207 to 208 °C for the second.

First: CC(=O)NCc1cccc2c1ccn2-c1ccnc(N[C@H]2CC[C@H](N(C)S(C)(=O)=O)CC2)n1 [Compound 205, N-(1-{2-[4-(methane-sulfonyl-methylamino)-cyclohexylamino]-pyrimidin-4-yl}-1H-indol-4-ylmethyl)-acetamide]
Second: CC(=O)N[C@H]1CC[C@H](Nc2nccc(-n3ccc4c(S(C)(=O)=O)cccc43)n2)CC1 [Compound 218, N-{4-[4-(4-methane-sulfonyl-indol-1-yl)-pyrimidin-2-ylamino]-cyclohexyl}-acetamide]
The melting point of the first is lower: 210.5 to 212 °C for the first, 264 to 265 °C for the second.

`N#CCCCOc1cccc2c1ccn2-c1ccnc(N[C@H]2CC[C@H](C(=O)N3CCC(O)CC3)CC2)n1` [Compound 206, 4-(1-{2-[4-(4-hydroxy-piperidin-1-carbonyl)-cyclohexylamino]-pyrimidin-4-yl}-1H-indol-4-yloxy)-butyro-nitrile] and `COCCOc1cccc2c1ccn2-c1ccnc(N[C@H]2CC[C@H](C(=O)N3CCC(O)CC3)CC2)n1` [Compound 222, (4-hydroxy-piperidin-1-yl)-(4-{4-[4-(2-methoxy-ethoxy)-indol-1-yl]-pyrimidin-2-ylamino}-cyclohexyl)-methanone] cannot be ordered by melting point: 134 to 136 °C for the first, 134 to 135 °C for the second.

Compared with `CC(C)(O)c1cccc2c1cnn2-c1ccnc(N[C@H]2CC[C@H](N3CCCS3(=O)=O)CC2)n1` [Compound 207, 2-(1-{2-[4-(1,1-dioxo-isothiazolidin-2yl)-cyclohexylamino]-pyrimidin-4-yl}-1H-indazol-4-yl)-propan-2-ol], `CS(=O)(=O)CCCOc1cccc2c1cnn2-c1ccnc(N[C@H]2CC[C@H](N3CCCS3(=O)=O)CC2)n1` [Compound 215, [4-(1,1-dioxo-isothiazolidin-2-yl)-cyclohexyl]-{4-[4-(3-methane-sulfonyl-propoxy)-indazol-1-yl]-pyrimidin-2-yl}-amine] is higher in melting point: 204 to 205 °C for the first, 206 to 207 °C for the second.

Compared with `CC(C)(O)[C@H]1CC[C@H](Nc2nccc(-n3ccc4c(S(C)(=O)=O)cccc43)n2)CC1` [Compound 209, 2-{4-[4-(4-methane-sulfonyl-indol-1-yl)-pyrimidin-2-ylamino]-cyclohexyl}-propan-2-ol], `C[S+]([O-])CCCOc1cccc2c1ccn2-c1ccnc(N[C@H]2CC[C@H](C(C)(C)O)CC2)n1` (stereo partly shown) [Compound 211, 2-(4-{4-[4-(3-methane-sulfinyl-propoxy)-indol-1-yl]-pyrimidin-2-ylamino}-cyclohexyl)-propan-2-ol] is lower in melting point: 217.8 to 218.5 °C for the first, 190.5 to 191 °C for the second.

`CC(C)(O)c1cccc2c1cnn2-c1ccnc(N[C@H]2CC[C@H](NS(C)(=O)=O)CC2)n1` [Compound 212, N-(4-{4-[4-(2-hydroxy-prop-2-yl)-indazol-1-yl]-pyrimidin-2-ylamino}-cyclohexyl)-methanesulfonamide] and `CS(=O)(=O)N[C@H]1CC[C@H](Nc2nccc(-n3ncc4c(OCCCS(N)(=O)=O)cccc43)n2)CC1` [Compound 228, 3-{1-[2-(4-methane-sulfonylamino-cyclo-hexylamino)-pyrimidin-4-yl]-1H-indazol-4-yloxy}-propane-1-sulfonic acid amide] fall in the same range of melting point: 250 to 251 °C for the first, 250 to 251 °C for the second.

First: CS(=O)(=O)CCCOc1cccc2c1ccn2-c1ccnc(N[C@H]2CC[C@H](CO)CC2)n1 [Compound 214, (4-{4-[4-(3-methanesulfonyl-propoxy)-indol-1-yl]-pyrimidin-2-ylamino}-cyclohexyl)-methanol]
Second: CS(=O)(=O)CCCOc1cccc2c1ccn2-c1ccnc(N[C@H]2CC[C@H](C(=O)N3CC(O)C3)CC2)n1 [Compound 223, (3-hydroxy-azetidin-1-yl)-(4-{4-[4-(3-methane-sulfonyl-propoxy)-indol-1-yl]-pyrimidin-2-ylamino}-cyclohexyl)-methanone]
The melting point of the first is higher: 207 to 208 °C for the first, 152 to 153 °C for the second.

First: N#CCCCOc1cccc2c1cnn2-c1ccnc(N[C@H]2CC[C@H](C(=O)N3CCC(O)CC3)CC2)n1 [Compound 226, 4-(1-{2-[4-(4-hydroxy-piperidine-1-carbonyl)-cyclohexylamino]-pyrimidin-4-yl}-1H-indazol-4-yloxy)-butyro-nitrile]
Second: CN(C)S(=O)(=O)CCCOc1cccc2c1cnn2-c1ccnc(N[C@H]2CC[C@H](C(=O)N3CCC(O)CC3)CC2)n1 [Compound 229, 3-(1-{2-[4-(4-hydroxy-piperidin-1-carbonyl)-cyclohexylamino]-pyrimidin-4-yl}-1H-indazol-4-yloxy)-propane-1-sulfonic acid dimethylamide]
The melting point of the first is higher: 201 to 202 °C for the first, 190 to 191 °C for the second.

Compared with `CC(C)(CO)COc1cccc2c1cnn2-c1ccnc(N[C@H]2CC[C@H](C(=O)N3CCC(O)CC3)CC2)n1` [Compound 227, (4-{4-[4-(3-hydroxy-2,2-dimethylpropoxy)-indazol-1-yl]-pyrimidin-2-ylamino}-cyclohexyl)-(4-hydroxy-piperidin-1-yl)-methanone], `CS(=O)(=O)CCCOc1cccc2c1ccn2-c1ccnc(N[C@H]2CC[C@H](C(=O)N3CCC(F)CC3)CC2)n1` [Compound 239, (4-fluoro-piperidin-1-yl)-(4-{4-[4-(3-methane-sulfonyl-propoxy)-indol-1-yl]-pyrimidin-2ylamino}-cyclohexyl)-methanone] is lower in melting point: 213 to 214.5 °C for the first, 115 to 116 °C for the second.

Compared with `O=C([C@H]1CC[C@H](Nc2nccc(-n3ccc4c(C5(O)CCS(=O)(=O)CC5)cccc43)n2)CC1)N1CCC(O)CC1` [Compound 231, (4-{4-[4-(4-hydroxy-1,1-dioxo-hexahydro-thiopyran-4-yl)-indol-1-yl]-pyrimidin-2-yl-amino}-cyclohexyl)-(4-hydroxy-piperidin-1-yl)-methanone], `CS(=O)(=O)N[C@H]1CC[C@H](Nc2nccc(-n3ccc4c(OCCCC(F)(F)F)cccc43)n2)CC1` [Compound 235, N-(4-{4-[4-(4,4,4-tri-fluoro-butoxy)-indol-1-yl]-pyrimidin-2-yl-amino}-cyclohexyl)-methanesulfonamide] is lower in melting point: 271 to 272 °C for the first, 241 to 242 °C for the second.

With `CS(=O)(=O)N[C@H]1CC[C@H](Nc2nccc(-n3ccc4c(C5(O)CCS(=O)(=O)CC5)cccc43)n2)CC1` [Compound 230, N-(4-{4-[4-(4-hydroxy-1,1-dioxohexahydro-thiopyran-4-yl)-indol-1-yl]-pyrimidin-2-yl-amino}-cyclohexyl)-methanesulfonamide] the melting point was > 300 °C.

From patent publication US8399462B2, “JNK modulators” (Roche Palo Alto LLC, priority 2006, dated 2013)
